Patent US10597388B2, “Pyridazinone herbicides” (FMC CORPORATION, priority 2014, dated 2020)

How the values were obtained:
Experiment in all cases: Test E greenhouse herbicide test, pre- and postemergence
Type in all cases: in vivo
[1] = system: panicum, fall (fall panicum, Panicum dichotomiflorum)
Procedure, shortened: (§1)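 Compounds in a non-phytotoxic solvent mixture with surfactant were applied preemergence to seeds in silt loam soil and postemergence to 2-18 cm plants (1- to 4-leaf stage) in peat-based medium. After 14 to 21 d in a greenhouse, injury was rated visually against untreated controls on a 0 (no effect) to 100 (complete control) scale.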

[2] = system: beggarticks (hairy beggarticks, Bidens pilosa)
Procedure, shortened: as §1

[3] = system: horseweed (Conyza canadensis); conditions: Postemergence
Procedure, shortened: as §1

[4] = system: lambsquarters (Chenopodium album); conditions: Preemergence
Procedure, shortened: as §1

[5] = system: foxtail, green (green foxtail, Setaria viridis); conditions: Preemergence
Procedure, shortened: as §1

corn (Zea mays) = system: corn (Zea mays)
Procedure, shortened: as §1

[6] = system: field bindweed (Convolvulus arvensis)
Procedure, shortened: as §1

[7] = system: sandbur (southem sandbur, Cenchrus echinatus)
Procedure, shortened: as §1

[8] = system: ragweed (common ragweed, Ambrosia elatior)
Procedure, shortened: as §1

[9] = system: nightshade (eastern black nightshade, Solanum ptycanthum); conditions: Preemergence
Procedure, shortened: as §1

[10] = system: velvetleaf (Abutilon theophrasti); conditions: Preemergence
Procedure, shortened: as §1

[11] = system: momingglory (Ipomoea coccinea); conditions: Preemergence
Procedure, shortened: as §1

[12] = system: arrowleaf sida (Sida rhombifolia)
Procedure, shortened: as §1

[13] = system: foxtail, giant (giant foxtail, Setaria faberii); conditions: Preemergence
Procedure, shortened: as §1

[14] = system: crabgrass, large (large crabgrass, Digitaria sanguinalis); conditions: Preemergence
Procedure, shortened: as §1

[15] = system: Italian ryegrass (Lolium multiflorum)
Procedure, shortened: as §1

[16] = 62 g ai/ha, Postemergence, scale 0 to 100 (0 no effect, 100 complete control)
[17] = 62 g ai/ha, Preemergence, scale 0 to 100 (0 no effect, 100 complete control)
[18] = 125 g ai/ha, Postemergence, scale 0 to 100 (0 no effect, 100 complete control)
[19] = 125 g ai/ha, Preemergence, scale 0 to 100 (0 no effect, 100 complete control)
[20] = 250 g ai/ha, Postemergence, scale 0 to 100 (0 no effect, 100 complete control)
[21] = Postemergence, 31 g ai/ha, visual, scale 0 no effect to 100 complete control
[22] = Preemergence, 31 g ai/ha, scale 0 to 100, 0 no effect, 100 complete control
[23] = Preemergence, 250 g ai/ha, visual, scale 0 no effect to 100 complete control
[24] = Preemergence, 125 g ai/ha, visual, scale 0 no effect to 100 complete control
[25] = 62 g ai/ha, scale 0 to 100 (0 no effect, 100 complete control)
[26] = 125 g ai/ha, scale 0 to 100 (0 no effect, 100 complete control)
[27] = 31 g ai/ha, scale 0 to 100, 0 no effect, 100 complete control
[28] = 125 g ai/ha, visual, scale 0 no effect to 100 complete control
[29] = 250 g ai/ha, visual, scale 0 no effect to 100 complete control

## CCc1sc2ccc(C)cc2c1-c1c(O)c(C)nn(C)c1=O [Compound 47]
[1]; [16]
  Plant response rating, Panicum, Fall: 55
[1]; [17]
  Plant response rating, Panicum, Fall: 50
[1]; [18]
  Plant response rating, Panicum, Fall: 55
[1]; [19]
  Plant response rating, Panicum, Fall: 80
[1]; [20]
  Plant response rating, Panicum, Fall: 70
[1]; [21]
  Plant response rating, Panicum, Fall: 40
[1]; [22]
  Plant response rating, Panicum, Fall: 50
[1]; [23]
  Plant response rating, Panicum, Fall: 95
[2]; [16]
  Plant response rating, Beggarticks: 100
[2]; [17]
  Plant response rating, Beggarticks: 100
[2]; [18]
  Plant response rating, Beggarticks: 98
[2]; [20]
  Plant response rating, Beggarticks: 98
[2]; [21]
  Plant response rating, Beggarticks: 85
[2]; [22]
  Plant response rating, Beggarticks: 100
[2]; [24]
  Plant response rating, Beggarticks: 100
[2]; [23]
  Plant response rating, Beggarticks: 100
[3]; [25]
  Plant response rating, Horseweed: 40
[3]; [26]
  Plant response rating, Horseweed: 60
[3]; 250 g ai/ha, scale 0 to 100 (0 no effect, 100 complete control)
  Plant response rating, Horseweed: 75
[3]; 31 g ai/ha, visual, scale 0 no effect to 100 complete control
  Plant response rating, Horseweed: 40
[4]; [25]
  Plant response rating, Lambsquarters: 100
[4]; [27]
  Plant response rating, Lambsquarters: 100
[4]; [28]
  Plant response rating, Lambsquarters: 100
[4]; [29]
  Plant response rating, Lambsquarters: 100
[5]; [25]
  Plant response rating, Foxtail, Green: 20
[5]; [27]
  Plant response rating, Foxtail, Green: 0
[5]; [28]
  Plant response rating, Foxtail, Green: 30
[5]; [29]
  Plant response rating, Foxtail, Green: 70
Corn (Zea mays); [16]
  Plant response rating, Corn: 5
Corn (Zea mays); [17]
  Plant response rating, Corn: 0
Corn (Zea mays); [18]
  Plant response rating, Corn: 5
Corn (Zea mays); [20]
  Plant response rating, Corn: 20
Corn (Zea mays); [21]
  Plant response rating, Corn: 0
Corn (Zea mays); [22]
  Plant response rating, Corn: 0
Corn (Zea mays); [24]
  Plant response rating, Corn: 0
Corn (Zea mays); [23]
  Plant response rating, Corn: 0
[6]; [16]
  Plant response rating, Field Bindweed: 75
[6]; [17]
  Plant response rating, Field Bindweed: 50
[6]; [18]
  Plant response rating, Field Bindweed: 85
[6]; [20]
  Plant response rating, Field Bindweed: 90
[6]; [21]
  Plant response rating, Field Bindweed: 70
[6]; [22]
  Plant response rating, Field Bindweed: 50
[6]; [24]
  Plant response rating, Field Bindweed: 90
[6]; [23]
  Plant response rating, Field Bindweed: 100
[7]; [16]
  Plant response rating, Sandbur: 20
[7]; [17]
  Plant response rating, Sandbur: 0
[7]; [18]
  Plant response rating, Sandbur: 25
[7]; [19]
  Plant response rating, Sandbur: 10
[7]; [20]
  Plant response rating, Sandbur: 35
[7]; [21]
  Plant response rating, Sandbur: 20
[7]; [22]
  Plant response rating, Sandbur: 0
[7]; [23]
  Plant response rating, Sandbur: 70
[8]; [16]
  Plant response rating, Ragweed: 90
[8]; [17]
  Plant response rating, Ragweed: 95
[8]; [18]
  Plant response rating, Ragweed: 95
[8]; [19]
  Plant response rating, Ragweed: 98
[8]; [20]
  Plant response rating, Ragweed: 95
[8]; [21]
  Plant response rating, Ragweed: 80
[8]; [22]
  Plant response rating, Ragweed: 80
[8]; [23]
  Plant response rating, Ragweed: 100
[9]; [25]
  Plant response rating, Nightshade: 98
[9]; [26]
  Plant response rating, Nightshade: 100
[9]; [27]
  Plant response rating, Nightshade: 80
[9]; [29]
  Plant response rating, Nightshade: 100
[10]; [26]
  Plant response rating, Velvetleaf: 75
[10]; [27]
  Plant response rating, Velvetleaf: 0
[10]; [29]
  Plant response rating, Velvetleaf: 100
[11]; [25]
  Plant response rating, Morningglory: 75
[11]; [26]
  Plant response rating, Morningglory: 100
[11]; [27]
  Plant response rating, Morningglory: 25
[11]; [29]
  Plant response rating, Morningglory: 100
[12]; [16]
  Plant response rating, Arrowleaf Sida: 50
[12]; [17]
  Plant response rating, Arrowleaf Sida: 0
[12]; [18]
  Plant response rating, Arrowleaf Sida: 60
[12]; [20]
  Plant response rating, Arrowleaf Sida: 60
[12]; [21]
  Plant response rating, Arrowleaf Sida: 40
[12]; [22]
  Plant response rating, Arrowleaf Sida: 0
[12]; [24]
  Plant response rating, Arrowleaf Sida: 75
[12]; [23]
  Plant response rating, Arrowleaf Sida: 90
[13]; [25]
  Plant response rating, Foxtail, Giant: 0
[13]; [27]
  Plant response rating, Foxtail, Giant: 0
[13]; [28]
  Plant response rating, Foxtail, Giant: 40
[13]; [29]
  Plant response rating, Foxtail, Giant: 80
[14]; [25]
  Plant response rating, Crabgrass, Large: 0
[14]; [27]
  Plant response rating, Crabgrass, Large: 0
[14]; [28]
  Plant response rating, Crabgrass, Large: 0
[14]; [29]
  Plant response rating, Crabgrass, Large: 35
[15]; [16]
  Plant response rating, Ryegrass, Italian: 0
[15]; [17]
  Plant response rating, Ryegrass, Italian: 30
[15]; [18]
  Plant response rating, Ryegrass, Italian: 0
[15]; [19]
  Plant response rating, Ryegrass, Italian: 30
[15]; [20]
  Plant response rating, Ryegrass, Italian: 10
[15]; [21]
  Plant response rating, Ryegrass, Italian: 0
[15]; [22]
  Plant response rating, Ryegrass, Italian: 5
[15]; [23]
  Plant response rating, Ryegrass, Italian: 50
